Test results: patent publication US8722052B2, “Vaccinia virus protein A46 peptide and use thereof” (priority 2008, dated 2014)

Columns and labels:
TLR4 = assay: LPS-induced NFκB reporter assay in HEK293_TLR4 cells; assay type: cell-based, human; conditions: peptide 5 or 25 μM added 2 or 9 hours after 10 ng/ml LPS
Method: FIGS. 20A and B are bar charts showing the effect of shortened A464 peptides with deletions of N- and C-terminal amino acids on TLR4- and TLR3-induced NFκB activation in HEK293 cells. HEK293_TLR4 (A) and HEK293_TLR3 (B) cells were seeded in 96 well plates (1.5×10^5 cells/ml) 24 hours before transfection with the plasmid DNA. Cells were transfected with 60 ng NFκB-Luciferase and 20 ng of TK-Renilla reporter genes, as in FIG. 11. A464N-2 (SEQ ID NO. 41) and A464C-3 (SEQ ID NO. 42) peptides were added to the cells at a concentration of 1, 5 or 25 μM the next day and cells were stimulated with either 10 ng/ml LPS (A) or 25 μg/ml Poly(I:C) (B) 1 hour after treatment with peptides. Cells were harvested and assayed for NFκB activation by reporter gene assay 6 hours after stimulation with the agonists. No peptides were added to the control wells (black bars). Data is representative of three experiments each performed in triplicate and is expressed as mean fold induction±s.d. relative to control levels;
FIGS. 24A and B are bar charts showing the effect of A464 on ligand-independent TLR4 signalling in HEK293 cells. HEK293_TLR4 cells were seeded in 96 well plate (1.5×10^5 cells/ml) 24 hours before transfection with NFκB-luciferase and TK-Renilla reporter gene plasmids. NFκB activation was stimulated by transfecting either 50 or 100 ng of CD4/TLR4-encoding plasmid or by stimulating with 10 ng/ml LPS. The total amount of plasmid DNA transfected into the cells was made up to 230ng by adding pcDNA. A464 (SEQ ID NO. 20) was added to the cells at a concentration of 5 or 25 μM 2 hours (A) or 9 hours (B) after the transfection or LPS-stimulation. Cells were harvested and assayed for NFκB activation by reporter gene assay 24 hours post-transfection. No peptides were added to the control wells (black bars). Data is representative of two experiments, each performed in triplicate and is expressed as mean fold induction±s.d. relative to control levels;
HEK293 cells were transfected using GeneJuice® a proprietary non-toxic transfection reagent. […]

TLR3 = target: T1, TLR3 (Mus musculus, UniProt Q99MB1); assay: poly(I:C)-induced TNFα in RAW264.7 cells, ELISA; assay type: cell-based, murine; conditions: peptide 5, 20 or 50 μM, 25 μg/ml Poly(I:C), 24 h
T1 construct: endogenous in cells; host or cells: RAW264.7
T1 sequence (Q99MB1 26-905): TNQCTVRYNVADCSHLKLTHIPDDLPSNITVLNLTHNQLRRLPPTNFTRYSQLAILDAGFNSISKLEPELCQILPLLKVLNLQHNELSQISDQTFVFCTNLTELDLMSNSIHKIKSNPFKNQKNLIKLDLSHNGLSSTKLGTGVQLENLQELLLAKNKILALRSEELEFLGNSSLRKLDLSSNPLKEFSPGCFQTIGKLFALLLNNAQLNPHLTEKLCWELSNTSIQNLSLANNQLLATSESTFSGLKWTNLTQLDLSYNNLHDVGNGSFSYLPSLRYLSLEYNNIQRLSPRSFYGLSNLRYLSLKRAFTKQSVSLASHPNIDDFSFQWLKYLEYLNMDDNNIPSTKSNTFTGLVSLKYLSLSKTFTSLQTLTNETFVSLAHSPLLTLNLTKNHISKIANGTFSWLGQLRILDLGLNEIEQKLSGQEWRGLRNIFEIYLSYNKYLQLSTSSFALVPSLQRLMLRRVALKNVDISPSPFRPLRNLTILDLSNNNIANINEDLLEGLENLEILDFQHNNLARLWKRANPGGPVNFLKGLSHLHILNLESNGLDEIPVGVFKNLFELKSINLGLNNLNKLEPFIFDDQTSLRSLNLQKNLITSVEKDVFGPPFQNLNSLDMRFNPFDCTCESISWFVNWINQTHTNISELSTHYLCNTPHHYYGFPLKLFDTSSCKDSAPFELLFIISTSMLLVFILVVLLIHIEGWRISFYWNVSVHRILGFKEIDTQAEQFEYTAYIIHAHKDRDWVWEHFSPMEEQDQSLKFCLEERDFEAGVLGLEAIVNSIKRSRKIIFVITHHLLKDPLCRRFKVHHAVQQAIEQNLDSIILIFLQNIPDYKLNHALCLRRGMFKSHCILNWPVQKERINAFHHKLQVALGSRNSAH
Method: FIGS. 10A and B are bar charts showing the effect of A464 on poly(I:C)-induced TNFα in murine RAW264.7 cells. Cells were seeded in 96 well plates (1.5×10^5 cells/nil) 24 hours before treatment. […] Supernatants were collected 24 hours after stimulation and assayed for TNFα by ELISA (A) and cells were assayed for viability by the MTT assay (B). No peptides were added to the control wells (black bars). Data is representative of at least three experiments each performed in triplicate and is expressed as mean±s.d;
Cytokine and chemokine production from cells or mouse serum was measured by ELISA using Duoset kits from R&D systems, according to the manufacturer's instructions.
In order to determine whether A464 (SEQ ID No. 20) was specific for TLR4, other TLR pathways were next assayed for sensitivity to A464 (SEQ ID No. 20). A scrambled version of A464 (SEQ ID No. 20) peptide was designed to use as a further control peptide, and this had the sequence: […] (ConA464, SEQ ID No. 32). The A464R (SEQ ID No. 20) and ConA464 (SEQ ID No. 32) peptides were assayed for inhibition of TLR2 signalling in THP-1 cells. Pam3CysK4 (S-(2,3-bis(palmitoyloxy)-(2-RS)-propyl)-N-palmitoyl-(R)-Cys-(S)-Ser-(S)-Lys(4)) is a synthetic tripalmitoylated lipopeptide that is recognized by a TLR2/TLR1 heterodimer and leads to activation of NFκB through a Mal- and MyD88-dependent pathway. […]

Sequence of TLR4 (O00206 24-839): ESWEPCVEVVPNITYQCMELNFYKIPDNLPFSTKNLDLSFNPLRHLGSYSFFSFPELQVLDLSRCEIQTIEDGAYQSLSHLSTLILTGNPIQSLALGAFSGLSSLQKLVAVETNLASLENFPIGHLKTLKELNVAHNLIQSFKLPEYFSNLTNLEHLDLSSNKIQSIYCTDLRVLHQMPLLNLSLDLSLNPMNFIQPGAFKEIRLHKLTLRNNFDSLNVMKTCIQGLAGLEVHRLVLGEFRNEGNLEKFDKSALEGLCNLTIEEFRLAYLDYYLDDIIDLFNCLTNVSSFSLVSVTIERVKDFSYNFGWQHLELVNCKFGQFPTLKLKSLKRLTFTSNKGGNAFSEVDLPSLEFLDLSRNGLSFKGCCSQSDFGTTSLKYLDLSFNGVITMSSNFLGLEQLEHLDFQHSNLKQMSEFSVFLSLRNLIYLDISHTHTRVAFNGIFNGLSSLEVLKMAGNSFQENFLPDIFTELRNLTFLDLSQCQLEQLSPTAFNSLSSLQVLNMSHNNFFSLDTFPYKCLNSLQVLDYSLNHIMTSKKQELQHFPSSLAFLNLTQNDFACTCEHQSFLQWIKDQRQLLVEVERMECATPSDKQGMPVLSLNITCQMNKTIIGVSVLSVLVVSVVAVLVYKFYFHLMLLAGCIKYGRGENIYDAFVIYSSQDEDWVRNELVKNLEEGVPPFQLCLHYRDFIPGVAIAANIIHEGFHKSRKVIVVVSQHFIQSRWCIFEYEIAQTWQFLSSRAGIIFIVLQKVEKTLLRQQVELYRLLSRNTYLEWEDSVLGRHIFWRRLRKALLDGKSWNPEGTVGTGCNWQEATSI
Sequence of TLR4 (Q9Y6Y9 17-160 partner limits assumed): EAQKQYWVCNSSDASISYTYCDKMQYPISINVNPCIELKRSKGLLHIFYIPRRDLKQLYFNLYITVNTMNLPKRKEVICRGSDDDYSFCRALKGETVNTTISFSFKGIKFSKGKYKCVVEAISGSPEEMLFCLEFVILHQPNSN

KYSFKLILAEYRRRRRRRRR [Peptide A464]
inhibition of LPS-induced NFκB activation (TLR4): capable of inhibiting LPS-induced NFκB activation | inhibition of poly(I:C)-induced mTNFα production (TLR3): some inhibition of mTNFα production in response to stimulation with 25 mg/ml Poly(I:C) was seen but only at a concentration of 50 μM
